Measurements: article PMC4777244, “Activation of transient receptor potential ankyrin 1 induces CGRP release from spinal cord synaptosomes” (Pharmacology Research & Perspectives, 2015)
“And” between values parts separate entries of the source, which are not always exact repeats. Identical values can stand only once. “Also recorded” adds a separate entry of the source. Counter-ions that a name gives are not always drawn. Like-named read-outs stand apart in the source and are kept apart here.

Assays:
TRPA1 = biological target: T1, TRPA1 (Rattus norvegicus, UniProt Q6RI86); test: cell-based
T1 construct: TRPA1 natively expressed on the central terminals of dorsal root ganglion neurons; from tissue; host or cells: lumbar spinal cord homogenate (synaptosomes) of adult male Sprague Dawley rats

[1] = system: recombinantly‐expressed TRPA1 channels; conditions: cited from earlier work
spinal cord synaptosomes = test: KCl (depolarization)-evoked CGRP release from rat spinal cord homogenate, ELISA; type: cell-based; conditions: for CGRP release over basal release: n = 3
[2] = system: voltage‐gated calcium channels (VGCCs); type: cell-based, rat
[3] = system: voltage‐gated calcium channels (VGCCs); type: cell-based, rat; remark: listed apart in the source
T‐type VGCCs = system: T‐type VGCCs; set-up: method as in Martin et al. 2000; conditions: ref Martin et al. 2000; cited from earlier work
TRPM3 = system: TRPM3; set-up: method as in Wagner et al. 2008; conditions: ref Wagner et al. 2008; read-out: EC50 for activation of TRPM3; cited from earlier work

T1 sequence (Q6RI86 whole entry): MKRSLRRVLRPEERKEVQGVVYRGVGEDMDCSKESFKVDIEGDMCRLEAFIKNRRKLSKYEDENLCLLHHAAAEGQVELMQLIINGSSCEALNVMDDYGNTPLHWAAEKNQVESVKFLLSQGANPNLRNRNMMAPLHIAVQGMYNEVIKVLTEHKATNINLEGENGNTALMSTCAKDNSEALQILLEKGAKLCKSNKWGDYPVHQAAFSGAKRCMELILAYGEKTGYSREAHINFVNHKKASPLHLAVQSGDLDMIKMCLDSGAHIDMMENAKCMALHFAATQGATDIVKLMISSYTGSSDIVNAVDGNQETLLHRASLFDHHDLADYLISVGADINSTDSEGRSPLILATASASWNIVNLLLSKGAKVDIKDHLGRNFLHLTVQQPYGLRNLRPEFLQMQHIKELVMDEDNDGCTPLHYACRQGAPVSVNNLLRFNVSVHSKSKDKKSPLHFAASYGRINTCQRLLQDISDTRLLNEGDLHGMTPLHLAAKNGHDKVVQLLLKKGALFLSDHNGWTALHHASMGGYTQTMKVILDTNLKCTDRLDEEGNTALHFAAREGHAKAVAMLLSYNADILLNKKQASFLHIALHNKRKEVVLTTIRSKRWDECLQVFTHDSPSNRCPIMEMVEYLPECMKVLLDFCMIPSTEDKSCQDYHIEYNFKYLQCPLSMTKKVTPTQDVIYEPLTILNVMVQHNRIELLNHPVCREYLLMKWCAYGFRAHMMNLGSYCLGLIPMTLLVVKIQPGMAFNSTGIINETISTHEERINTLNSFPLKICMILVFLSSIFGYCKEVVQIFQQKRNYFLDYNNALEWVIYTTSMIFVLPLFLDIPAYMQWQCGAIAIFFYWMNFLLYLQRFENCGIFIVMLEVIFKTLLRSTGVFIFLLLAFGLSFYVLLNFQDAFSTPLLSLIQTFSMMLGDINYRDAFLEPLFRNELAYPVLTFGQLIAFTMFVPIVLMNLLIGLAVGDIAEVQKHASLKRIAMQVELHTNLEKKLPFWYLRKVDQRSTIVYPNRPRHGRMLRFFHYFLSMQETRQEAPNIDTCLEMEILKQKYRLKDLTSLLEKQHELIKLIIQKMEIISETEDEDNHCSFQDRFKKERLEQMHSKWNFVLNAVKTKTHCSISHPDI

CCCCCC(O)/C=C/C=O (stereo not shown) [4‐HNE, 4‐hydroxynonenal]
EC50 (TRPA1; read-out: EC50 of CGRP release): 17.4 ± 0.68 µM

CCCCCC(=O)C=CC=O [4‐ONE, 4‐oxo‐2‐nonenal]
EC50 (TRPA1; rat spinal cord homogenate, ELISA, mean ± SEM, read-out: EC50 of CGRP release): 63.8 µM and ~64 µM | EC50 ([1]; ref Taylor‐Clark et al. 2008, read-out: previously reported EC50 value): ~2 µM

C=CCN=C=S [AITC, allyl‐isothiocyanate]
AITC-induced CGRP release (TRPA1): 42 ± 11 % of 40 mmol/L KCl‐evoked release

CC(=C\c1ccc(Cl)cc1)/C(C)=N/O [AP18]
AITC-induced CGRP release in the presence of AP18 (TRPA1; 50 μmol/L AP18, 100 μmol/L AITC, dorsal homogenate): 8 ± 5 % of 40 mmol/L KCl‐evoked release | cinnamaldehyde-evoked CGRP release in the presence of AP18 (TRPA1; 50 μmol/L AP18, 100 μmol/L cinnamaldehyde, dorsal homogenate): −1 ± 3 % of 40 mmol/L KCl‐evoked release | effect on CGRP release induced by 40 mmol/L and 60 mmol/L KCl (spinal cord synaptosomes; 50 μmol/L AP18): no effect

[Cl-].[K+] [KCl]
CGRP release evoked by 40 mmol/L KCl, absence of morphine (spinal cord synaptosomes; 40 mmol/L KCl, dorsal homogenate, morphine experiment, n = 4): 77 ± 7 % over basal release | CGRP release over basal release (spinal cord synaptosomes; 40 mmol/L KCl, dorsal spinal cord homogenate, dorsal/ventral experiment): 67 ± 9 % over basal release | CGRP release over basal release (spinal cord synaptosomes; 40 mmol/L KCl, ventral spinal cord homogenate): 6 ± 4 % over basal release | CGRP release evoked by 60 mmol/L KCl, absence of morphine (spinal cord synaptosomes; 60 mmol/L KCl, dorsal homogenate, morphine experiment, n = 4): 131 ± 17 % over basal release

O=C/C=C/c1ccccc1 [cinnamaldehyde]
cinnamaldehyde-evoked CGRP release (TRPA1; 100 μmol/L cinnamaldehyde, dorsal homogenate, absence of AP18): 39 ± 8 % of 40 mmol/L KCl‐evoked release | CGRP release over basal release (TRPA1; 100 μmol/L cinnamaldehyde, dorsal spinal cord homogenate, n = 3): 14 ± 5 % over basal release | CGRP release over basal release (TRPA1; 100 μmol/L cinnamaldehyde, ventral spinal cord homogenate, n = 3): 0 ± 1 % over basal release | response to 1000 μmol/L cinnamaldehyde in Ca2+ free solutions as % of the response in Ca2+ containing solutions (TRPA1; 1000 μmol/L, Ca2+ free, 1 mmol/L EGTA, mean ± SEM, n = 3): 18 ± 6% | EC50 (TRPA1; EC50 of CGRP release, rat spinal cord homogenate, ELISA, mean ± SEM): 54.8 ± 5.84 µM

COCC(=O)O[C@]1(CCN(C)CCCc2nc3ccccc3[nH]2)CCc2cc(F)ccc2[C@@H]1C(C)C [mibefradil dihydrochloride]
decrease of high potassium-induced CGRP release ([2]; 40 mmol/L KCl, mibefradil dihydrochloride 10 μmol/L, cocktail): ~ 50% | effect on 40 mmol/L KCl-induced CGRP release ([2]; nifedipine 5 μmol/L, ω‐conotoxin MVIIC 200 nmol/L, mibefradil dihydrochloride 10 μmol/L, cocktail): significantly decreased | depolarization-induced CGRP release in the presence of inhibitor ([2]; ω‐conotoxin MVIIC 1 μmol/L, mibefradil dihydrochloride 10 μmol/L, cocktail (5 μmol/L nifedipine, 1 μmol/L ω‐conotoxin MVIIC, 10 μmol/L mibefradil)): 48 ± 6 % of control 40 mmol/L KCl‐evoked release | effect on 100 μmol/L cinnamaldehyde-induced CGRP release ([3]; nifedipine 5 μmol/L, mibefradil dihydrochloride 10 μmol/L, ω‐conotoxin MVIIC 200 nmol/L, ANOVA): not significantly altered; also recorded: not significantly affected | greater affinity for T-type VGCCs than for L-type VGCC (T‐type VGCCs): 12–13 fold

COC(=O)C1=C(C)NC(C)=C(C(=O)OC)C1c1ccccc1[N+](=O)[O-] [nifedipine]
EC50 ([1]; ref Fajardo et al. 2008, read-out: EC50 for activation of recombinantly-expressed TRPA1 channels): ~0.4 µM | EC50 (TRPM3): ~30 µM

ω‐conotoxin MVIIC
depolarization-induced CGRP release in the presence of inhibitor [2]: 73 ± 8 % of control 40 mmol/L KCl‐evoked release | effect on 100 μmol/L cinnamaldehyde-induced CGRP release [3]: not significantly altered; also recorded: not significantly affected
